# Measurements from ChEMBL document CHEMBL3785063 (Eur J Clin Pharmacol, 1981).
# Tests used:
# [1] = Drug excretion in arrhythmia patient (7 patients) assessed as unchanged compound level in urine at 400 mg, iv after 4 days 400 mg, po dose administered followed continuous oral therapy with 200 mg, tid measured 2 hrs after iv drug challenge by HPLC analysis; conditions: human
# [2] = Drug concentration in arrhythmia patient (7 patients) serum at 400 mg, iv after 4 days 400 mg, po dose administered followed continuous oral therapy with 200 mg, tid measured after 1 month by HPLC analysis; conditions: human
# [3] = Drug concentration in arrhythmia patient (7 patients) serum at 400 mg, iv after 4 days 400 mg, po dose administered followed continuous oral therapy with 200 mg, tid measured after 1 week by HPLC analysis; conditions: human
# [4] = Drug concentration in arrhythmia patient (7 patients) serum at 400 mg, iv after 4 days 400 mg, po dose administered followed continuous oral therapy with 200 mg, tid measured after 48 hrs by HPLC analysis; conditions: human
# [5] = Drug uptake in arrhythmia patient (7 patients) serum at 400 mg, iv after 4 days 400 mg, po dose administered followed continuous oral therapy with 200 mg, tid measured 2 hrs after iv drug challenge by HPLC analysis; conditions: human
# [6] = Drug concentration in arrhythmia patient (7 patients) serum at 400 mg, iv after 4 days 400 mg, po dose administered followed continuous oral therapy with 200 mg, tid measured after 24 hrs by HPLC analysis; conditions: human
# [7] = Tmax in arrhythmia patient (7 patients) at 400 mg, iv after 4 days 400 mg, po dose administered followed continuous oral therapy with 200 mg, tid by HPLC analysis; conditions: human, in vivo
smiles,measurement,setting,value
CCCCc1oc2ccccc2c1C(=O)c1cc(I)c(OCCN(CC)CC)c(I)c1 [AMIODARONE],concentration at 2 h,[1],100 ng/mL
same,concentration at 96 h,[2],1560 ng/mL
same,concentration at 1 week,[3],1180 ng/mL
same,concentration at 48 h,[4],760 ng/mL
same,concentration at 2 h,[5],2000 ng/mL
same,concentration at 24 h,[6],610 ng/mL
same,Tmax at 96 h,[7],7.3 h
